Measurements: the NIST ThermoML archive (doi:10.1016/j.jct.2017.02.010)

Conditions: Gas chromatography

CC1=C2CC[C@@H](C)C[C@H]2OC1=O [(-)-mintlactone]
Metastable liquid
Conditions | vapor or sublimation pressure [kPa]
298.15 K | 0.00033
305 K | 0.00063
310 K | 0.001
315 K | 0.0015
320 K | 0.0024
325 K | 0.0035
330 K | 0.0053
335 K | 0.0077
340 K | 0.011
345 K | 0.016
350 K | 0.023

CC1=C2CC[C@@H](C)C[C@@H]2OC1=O [(.+-.)-isomintlactone]
Metastable liquid
Conditions | vapor or sublimation pressure [kPa]
298.15 K | 0.00026
305 K | 0.00051
310 K | 0.00081
315 K | 0.0013
320 K | 0.0019
325 K | 0.0029
330 K | 0.0044
335 K | 0.0064
340 K | 0.0093
345 K | 0.013
350 K | 0.019

CCCC[C@H]1OC(=O)C[C@H]1C [cis-whiskey lactone]
Liquid
Conditions | vapor or sublimation pressure [kPa]
298.15 K | 0.0015
305 K | 0.0028
310 K | 0.0043
315 K | 0.0064
320 K | 0.0095
325 K | 0.014
330 K | 0.02
335 K | 0.029
340 K | 0.041
345 K | 0.057
350 K | 0.079

CCCC[C@H]1OC(=O)C[C@@H]1C [trans-whiskey lactone]
Liquid
Conditions | vapor or sublimation pressure [kPa]
298.15 K | 0.002
305 K | 0.0036
310 K | 0.0056
315 K | 0.0084
320 K | 0.012
325 K | 0.018
330 K | 0.026
335 K | 0.037
340 K | 0.052
345 K | 0.072
350 K | 0.099
